Test results from PubChem BioAssay AID304 (DTP/NCI, 2004).
“And” between values parts separate entries of the source, which are not always exact repeats. Equal entries are not always repeated. Inconclusive results and toxic doses are left out. Starred links: 1 amine or outer side, 2 acyl side, 3 side chain; linkers in the order of their positions; H or OH if unused. Positions of bridges follow the written chain, without caps; N, C: chain ends. Non-standard residues stand in square brackets, D forms with d. Residues, ends and D or L forms follow the SMILES beside them. Chains are numbered I, II in the order given. Actinocin(9to1) = Cc1c2oc3c(C)ccc(C(=O)[*:1])c3nc-2c(C(=O)[*:2])c(N)c1=O; aThr = C[C@H](O)[C@H](N)C(=O)O; NMeV = CN[C@H](C(=O)O)C(C)C; Sar = CNCC(=O)O

Tested on: Lymphosarcoma Mecca ip in C3AKF1 mice, survival T/C%
Experiment: NCI In Vivo Anticancer Drug Screen. Data for tumor model Lymphosarcoma Mecca (intraperitoneal) in C3AKF1 (CHKRF1) mice
Details: endpoint: survival time, mean or median, higher = longer survival
Procedure: The antitumor activity of compounds was measured in mice bearing transplantable tumors. Survival or tumor size were measured and the results are expressed as the measurement made in the treated group (T) divided by the measurement made in the vehicle treated control group (C). The tumor model used in this assay is Lymphosarcoma Mecca (intraperitoneal) in C3AKF1 (CHKRF1) mice

[1] = dose: 31.3 mg/kg/injection, schedule: Q01DX010 (ip), vehicle: saline
[2] = dose: 62.5 mg/kg/injection, schedule: Q01DX010 (ip), vehicle: saline
[3] = dose: 125.0 mg/kg/injection, schedule: Q01DX010 (ip), vehicle: saline
[4] = dose: 250.0 mg/kg/injection, schedule: Q01DX010 (ip), vehicle: saline
[5] = dose: 1.25 mg/kg/injection, schedule: Q01DX010 (ip), vehicle: saline
[6] = dose: 2.5 mg/kg/injection, schedule: Q01DX010 (ip), vehicle: saline
[7] = dose: 5.0 mg/kg/injection, schedule: Q01DX010 (ip), vehicle: saline
[8] = dose: 10.0 mg/kg/injection, schedule: Q01DX010 (ip), vehicle: saline
[9] = dose: 20.0 mg/kg/injection, schedule: Q01DX010 (ip), vehicle: saline
[10] = dose: 25.0 mg/kg/injection, schedule: Q01DX010 (ip), vehicle: saline
[11] = dose: 200.0 mg/kg/injection, schedule: Q01DX010 (ip), vehicle: saline
[12] = dose: 1.0 mg/kg/injection, schedule: Q01DX010 (ip), vehicle: saline
[13] = dose: 2.0 mg/kg/injection, schedule: Q01DX010 (ip), vehicle: saline
[14] = dose: 8.0 mg/kg/injection, schedule: Q01DX010 (ip), vehicle: saline
[15] = dose: 12.5 mg/kg/injection, schedule: Q01DX010 (sc), vehicle: steriod suspending solution
[16] = dose: 25.0 mg/kg/injection, schedule: Q01DX010 (sc), vehicle: steriod suspending solution
[17] = dose: 50.0 mg/kg/injection, schedule: Q01DX010 (sc), vehicle: steriod suspending solution
[18] = dose: 100.0 mg/kg/injection, schedule: Q01DX010 (sc), vehicle: steriod suspending solution
[19] = dose: 16.0 mg/kg/injection, schedule: Q01DX010 (ip), vehicle: saline
[20] = dose: 4.0 mg/kg/injection, schedule: Q01DX010 (ip), vehicle: saline
[21] = dose: 500.0 mg/kg/injection, schedule: Q01DX010 (ip), vehicle: saline
[22] = dose: 0.13 mg/kg/injection, schedule: Q01DX010 (ip), vehicle: saline
[23] = dose: 0.5 mg/kg/injection, schedule: Q01DX010 (ip), vehicle: saline

Cc1c2oc3c(C)ccc(C(=O)N[C@@H]4C(=O)N[C@H](C(C)C)C(=O)N5CCC[C@H]5C(=O)N(C)CC(=O)N(C)[C@@H](C(C)C)C(=O)O[C@H]4C)c3nc-2c(C(=O)N[C@@H]2C(=O)N[C@H](C(C)C)C(=O)N3CCC[C@H]3C(=O)N(C)CC(=O)N(C)[C@@H](C(C)C)C(=O)O[C@H]2C)c(N)c1=O (I: [aThr][dV]P[Sar][NMeV] / II: [aThr][dV]P[Sar][NMeV]; ester I:1-I:C, II:1-II:C; linker I:N-II:N via Actinocin(9to1))
T/C (dose: 13.0 micrograms/kg/injection, schedule: Q01DX010 (ip), vehicle: acid diluted with saline): 183 % of control
T/C (dose: 25.0 micrograms/kg/injection, schedule: Q01DX010 (ip), vehicle: acid diluted with saline): 103 % of control
T/C (dose: 50.0 micrograms/kg/injection, schedule: Q01DX010 (ip), vehicle: acid diluted with saline): 123 % of control

CCCSc1ncnc2nc[nH]c12
T/C [1]: 105 % of control and 111 % of control
T/C [2]: 105 % of control and 111 % of control
T/C [3]: 105 % of control
T/C [4]: 88 % of control

CC[n+]1c(-c2ccccc2)c2cc(N)ccc2c2ccc(N)cc21
T/C [5]: 100 % of control
T/C [6]: 100 % of control and 120 % of control
T/C [7]: 100 % of control
T/C [8]: 105 % of control and 120 % of control
T/C [9]: 105 % of control

Oc1cc(CN(CCCl)CCCl)c(O)cc1CN(CCCl)CCCl
T/C (dose: 0.63 mg/kg/injection, schedule: Q01DX010 (ip), vehicle: saline): 120 % of control

NC(=O)n1cccn1
T/C [10]: 90 % of control
T/C (dose: 50.0 mg/kg/injection, schedule: Q01DX010 (ip), vehicle: saline): 100 % of control
T/C (dose: 100.0 mg/kg/injection, schedule: Q01DX010 (ip), vehicle: saline): 100 % of control
T/C [11]: 100 % of control

O=C(Nc1ccc(C2=NCCCN2)cc1)c1ccc(C(=O)Nc2ccc(C3=NCCCN3)cc2)cc1
T/C [12]: 111 % of control and 116 % of control
T/C [13]: 116 % of control and 122 % of control
T/C [14]: 150 % of control

O=c1[nH]cc(F)c(=O)[nH]1
T/C [6]: 100 % of control
T/C [7]: 110 % of control
T/C [9]: 155 % of control

O=C(O)c1[nH]c(=O)[nH]c(=O)c1F
T/C [5]: 100 % of control
T/C [6]: 88 % of control and 122 % of control
T/C [9]: 122 % of control

COc1cc(-c2ccc(Nc3ccccc3C(=O)O)c(OC)c2)ccc1Nc1ccccc1C(=O)O
T/C (dose: 12.5 mg/kg/injection, schedule: Q01DX010 (ip), vehicle: saline): 111 % of control
T/C [10]: 120 % of control and 122 % of control
T/C [11]: 105 % of control

N=C(N)c1ccc(Nc2ccc(C(=N)N)cc2)cc1
T/C (dose: 3.0 mg/kg/injection, schedule: Q01DX010 (ip), vehicle: saline): 100 % of control
T/C (dose: 6.0 mg/kg/injection, schedule: Q01DX010 (ip), vehicle: saline): 90 % of control and 100 % of control
T/C (dose: 12.0 mg/kg/injection, schedule: Q01DX010 (ip), vehicle: saline): 100 % of control and 110 % of control
T/C (dose: 24.0 mg/kg/injection, schedule: Q01DX010 (ip), vehicle: saline): 100 % of control

COc1cc(-c2ccc(Nc3ccccc3C(=O)O)c(OC)c2)ccc1N
T/C [8]: 105 % of control and 110 % of control
T/C [9]: 111 % of control and 115 % of control
T/C (dose: 40.0 mg/kg/injection, schedule: Q01DX010 (ip), vehicle: saline): 122 % of control
T/C (dose: 80.0 mg/kg/injection, schedule: Q01DX010 (ip), vehicle: saline): 111 % of control

CC(=O)O[C@]1(C(C)=O)CC[C@H]2[C@@H]3C[C@H](C)C4=CC(=O)C=C[C@]4(C)[C@@]3(F)[C@@H](O)C[C@@]21C
T/C [15]: 105 % of control
T/C [16]: 100 % of control
T/C [17]: 100 % of control
T/C [18]: 90 % of control

O=C(Nc1ccc(C2=NCCN2)cc1)c1cccc(C(=O)Nc2ccc(C3=NCCN3)cc2)c1
T/C [14]: 113 % of control
T/C [19]: 110 % of control and 205 % of control
T/C (dose: 64.0 mg/kg/injection, schedule: Q01DX010 (ip), vehicle: saline): 175 % of control

Nc1nc(=S)c2ncn(C3OC(CO)C(O)C3O)c2[nH]1 (centres undefined)
T/C [12]: 115 % of control and 120 % of control
T/C [13]: 115 % of control
T/C [20]: 105 % of control and 115 % of control
T/C [14]: 90 % of control and 105 % of control

Clc1ncnc2nc[nH]c12
T/C (dose: 7.5 mg/kg/injection, schedule: Q01DX010 (ip), vehicle: saline): 90 % of control
T/C (dose: 15.0 mg/kg/injection, schedule: Q01DX010 (ip), vehicle: saline): 95 % of control and 100 % of control
T/C (dose: 30.0 mg/kg/injection, schedule: Q01DX010 (ip), vehicle: saline): 86 % of control and 95 % of control
T/C (dose: 60.0 mg/kg/injection, schedule: Q01DX010 (ip), vehicle: saline): 86 % of control

C[C@]12C=CC(=O)C=C1CC[C@@H]1[C@@H]2[C@@H](O)C[C@@]2(C)[C@H]1CC[C@]2(O)C(=O)CO
T/C [15]: 86 % of control
T/C [16]: 100 % of control
T/C [17]: 160 % of control
T/C [18]: 115 % of control

NC(Cc1ccc(N(CCCl)CCCl)cc1)C(=O)O (centres undefined)
T/C [13]: 188 % of control and 190 % of control
T/C [20]: 165 % of control and 224 % of control
T/C [7]: 160 % of control
T/C [14]: 168 % of control
T/C [8]: 105 % of control and 110 % of control
T/C [19]: 100 % of control and 108 % of control
T/C [9]: 95 % of control

Nc1nc2n[nH]nc2c(=O)[nH]1
T/C (dose: 25.0 mg/kg/injection, schedule: Q01DX010 (ip), vehicle: alkali diluted with saline): 115 % of control
T/C (dose: 50.0 mg/kg/injection, schedule: Q01DX010 (ip), vehicle: alkali diluted with saline): 88 % of control and 110 % of control

Cc1cn(C2OC(CO)C(O)C2O)c(=O)[nH]c1=O (centres undefined)
T/C [2]: 105 % of control
T/C [3]: 111 % of control
T/C [4]: 105 % of control
T/C [21]: 111 % of control

c1ccc(CNc2ncnc3[nH]ncc23)cc1
T/C [14]: 151 % of control
T/C [19]: 100 % of control and 118 % of control
T/C (dose: 32.0 mg/kg/injection, schedule: Q01DX010 (ip), vehicle: saline): 90 % of control

COc1ccc2c(c1OC)C(=O)O[C@@H]2[C@H]1c2c(cc3c(c2OC)OCO3)CCN1C
T/C [1]: 100 % of control and 105 % of control
T/C [2]: 100 % of control and 116 % of control
T/C [3]: 100 % of control and 116 % of control
T/C [4]: 94 % of control and 100 % of control

C[C@@H]1C[C@@H]([C@H](O)CC2CC(=O)NC(=O)C2)C(=O)[C@@H](C)C1
T/C [7]: 109 % of control
T/C [8]: 100 % of control and 113 % of control
T/C [9]: 95 % of control

C1CN1c1nc(N2CC2)nc(N2CC2)n1
T/C [22]: 180 % of control
T/C (dose: 0.25 mg/kg/injection, schedule: Q01DX010 (ip), vehicle: saline): 152 % of control
T/C [23]: 96 % of control
T/C [12]: 95 % of control

CC(=O)NC1=C(N2CC2)C(=O)C(NC(C)=O)=C(N2CC2)C1=O
T/C [22]: 109 % of control
T/C [23]: 177 % of control and 188 % of control
T/C [12]: 109 % of control and 111 % of control

O[C@H](CN1CC1)[C@@H](O)CN1CC1
T/C (dose: 62.5 micrograms/kg/injection, schedule: Q01DX010 (ip), vehicle: saline): 175 % of control
T/C (dose: 125.0 micrograms/kg/injection, schedule: Q01DX010 (ip), vehicle: saline): 210 % of control and 235 % of control
T/C (dose: 250.0 micrograms/kg/injection, schedule: Q01DX010 (ip), vehicle: saline): 235 % of control and 300 % of control
T/C (dose: 500.0 micrograms/kg/injection, schedule: Q01DX010 (ip), vehicle: saline): 105 % of control

CCOC(N)=O
T/C [3]: 90 % of control and 104 % of control
T/C [4]: 86 % of control and 95 % of control
T/C [21]: 95 % of control and 122 % of control

CCn1cnc2c(=S)nc[nH]c21
T/C (dose: 15.6 mg/kg/injection, schedule: Q01DX010 (ip), vehicle: saline): 100 % of control
T/C [1]: 100 % of control
T/C [2]: 90 % of control
T/C [3]: 100 % of control

Nc1nc(SCc2ccccc2)c2[nH]cnc2n1
T/C [14]: 90 % of control
T/C [19]: 90 % of control

CC1CN1P(=S)(N1CC1C)N1CC1C (centres undefined)
T/C [5]: 100 % of control
T/C [6]: 100 % of control and 105 % of control
T/C [7]: 100 % of control
T/C [8]: 100 % of control and 105 % of control
T/C [9]: 100 % of control
